The values that follow come from patent US8609688B2, “Substituted imidazopyridinyl-aminopyridine compounds” (ArQule, Inc., priority 2011, dated 2013).

For experiment [1], the target named is T1, Full-length inactive AKT1 (Homo sapiens (Human), UniProt P31749). Description: Thermal Shift Assay (protein-ligand binding). Conditions: Kd at 25° C. calculated using constant ligand binding enthalpy −15 kcal/mol; 15 μM compound, ANS dye. As for the experimental part:
Binding analysis. Protein-ligand binding was identified with the thermal shift assay which is based on the ligand-induced stabilization of the protein tertiary structure. The thermal stability of the ligand-Akt1 complex was assessed by subjecting the complex to a set temperature gradient and by comparison of the meltion temperature of the Akt1-ligand complex with the melting temperature of the protein alone. Protein unfolding was monitored by the fluorescence readout of an environmentally sensitive fluorescent dye, 1-anilinonaphthalene-8-sulfonic acid (ANS). […] The PCR plate was placed into a RT-PCR instrument and a temperature gradient was performed, increasing from 27 to 80° C., at 1° C./30 sec heat rate with a dwell time of 20 sec. The change in ANS fluorescence was measured using the filter set of 475 nm/525 nm excitation/emission.

The next experiment has as its system Phospho-Akt (S473). Kind of experiment: Cell ELISA Assay, Phospho-Akt detection. In kind it is cell-based. The following applies: cells treated for 1 hour, cell line not stated. As for the experimental part: Phospho-Akt detection analysis. Phospho-Akt (S473) was detected using cell ELISA. Briefly, cells were plated in a 96-well plate at 7,000-10,000 cells per well, cultured for 2-3 days in complete growth medium, and then treated with various drugs or combinations of drugs for 1 hour. The cells were fixed with ice-cold methanol, and washed with TBS supplemented with 1% H2O2. Phospho-Akt (S473) was probed with corresponding rabbit antibody as a primary antibody, and horseradish peroxidase conjugated goat anti-rabbit IgG. After treatment with SuperSignal® ELISA for 15 minutes, the detection was performed using a luminometer. Data were normalized to untreated controls and analyzed with Microsoft Excel.

The next experiment concerns cells. Kind of experiment: Cell proliferation / viability GI50 (MTS assay or ATP quantitation assay). In kind it is cell-based. Conditions: 72 hours treatment; cell line and assay (MTS or ATP quantitation) not stated. As to the method:
Cell proliferation analysis. Cell survival was determined by the MTS assay. Briefly, cells were plated in a 96-well plate at 2,000-10,000 cells per well, cultured for 24 hours in complete growth medium, and then treated with various drugs and drug combinations for 72 hours. MTS was added and incubated for 4 hour, followed by assessment of cell viability using the microplate reader at 570 nm. Data were normalized to untreated controls and analyzed with Microsoft Excel.
Cell viability analysis. Cell viability was determined by the ATP quantitation assay. Briefly, cells were plated in a 96-well plate at 2,000-10,000 cells per well, cultured for 24 hours in complete growth medium, and then treated with various drugs or combination of drugs for 72 hours. CellTiter-Glo® reagent was added and incubated at room temperature for 10 minutes, followed by assessment of cell viability using a luminometer. Data were normalized to untreated controls and analyzed with Microsoft Excel.

Experiment [2] deals with T1, Full-length inactive AKT1. Kind of experiment: Inactive Akt Alpha Screen Assay. Conditions: 8 nM inactive Akt1 activated by PDK1 and MAPKAPK2, lipid vesicles, 50 μM ATP, biotinylated crosstide; read-out: Akt1 biochemical assay IC50 AlphaScreen crosstide. As to the method: AKT1 activity was assayed using the GSK3-derived biotinylated peptide substrate, crosstide (biotin-[…]), and AlphaScreen™ (Amplified Luminescent Proximity Homogeneous Assay) technology. AKT1 activation was achieved by the addition of the activating kinases PDK1 and MAPKAPK2, lipid vesicles, and ATP. The extent of peptide phosphorylation was determined using a phospho-AKT substrate antibody and acceptor beads conjugated to Protein A and donor beads conjugated to streptavidin that bind to the biotin on the peptide. Excitation of the donor beads converted ambient oxygen to excited singlet oxygen which, when in close proximity to acceptor beads, reacted with acceptor beads resulting in signal amplification.
After a 20 minute pre-incubation at room temperature, the kinase reaction was initiated by the addition of 5 μL of an activation mixture diluted in assay buffer containing biotinylated crosstide, PDK1, MAPKAPK2, DOPS/DOPC, PtdIns(3,4,5)P3, and ATP for final concentrations of 60 nM biotinylated crosstide, 0.1 nM PDK1, 0.7 nM MK2, 5.5 μM DOPS, 5.5 μM DOPC, 0.5 μM PtdIns(3,4,5)P3, and 50 μM ATP. The plates were incubated for 30 minutes at room temperature, and then stopped in the dark by the addition of 10 μL stop/detection mixture prepared in assay buffer containing EDTA, AlphaScreen™ Streptavidin Donor and Protein A Acceptor beads, and phospho-AKT substrate antibody for final concentrations of 10 mM EDTA, 500 ng/well of both AlphaScreen™ Streptavidin Donor beads and Protein A Acceptor beads, and phospho-AKT substrate antibody at a final dilution of 1:350. Assay plates were incubated for 90 minutes at room temperature in the dark, and the plates were read on a Perkin Elmer Envision Multilabel plate reader (excitation wavelength: 640 nm, emission wavelength: 570 nm). […]

pIC50, pKd: −log10 of the molar value.

T1 sequence (P31749 whole entry): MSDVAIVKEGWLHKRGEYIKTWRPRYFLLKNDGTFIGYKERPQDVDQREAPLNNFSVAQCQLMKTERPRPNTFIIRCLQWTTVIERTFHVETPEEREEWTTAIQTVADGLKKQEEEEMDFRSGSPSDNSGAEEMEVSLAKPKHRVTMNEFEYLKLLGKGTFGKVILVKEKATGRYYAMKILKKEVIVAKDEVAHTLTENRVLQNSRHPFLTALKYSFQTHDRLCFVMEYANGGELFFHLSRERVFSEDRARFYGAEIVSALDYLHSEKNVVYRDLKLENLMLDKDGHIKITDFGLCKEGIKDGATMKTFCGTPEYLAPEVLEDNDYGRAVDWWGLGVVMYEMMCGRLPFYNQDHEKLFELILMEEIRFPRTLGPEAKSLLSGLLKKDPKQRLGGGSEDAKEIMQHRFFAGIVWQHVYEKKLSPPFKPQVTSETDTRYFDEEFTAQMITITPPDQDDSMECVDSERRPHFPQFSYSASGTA

Take `CCC(=O)N1CCN(c2cccc(-c3ccc4nc(-c5cccnc5N)n(-c5ccc(C6(N)CCC6)cc5)c4n3)c2)CC1` [Cmpd 13, 1-(4-(3-(3-(4-(1-aminocyclobutyl)phenyl)-2-(2-aminopyridin-3-yl)-3H-imidazo[4,5-b]pyridin-5-yl)phenyl)piperazin-1-yl)propan-1-one]: the pKd in experiment [1] is 8.85. The figures for the pIC50 (in the experiment with Phospho-Akt (S473); in experiment [2]) were 8.05 and 8.67, respectively. Further, the GI50 with cells was determined as 335000 nM.

Consider `Nc1ncccc1-c1nc2ccc(-c3cccc(NC(=O)C4CC4)c3)nc2n1-c1ccc(C2(N)CCC2)cc1` [Cmpd 3, N-(3-(3-(4-(1-aminocyclobutyl)phenyl)-2-(2-aminopyridin-3-yl)-3H-imidazo[4,5-b]pyridin-5-yl)phenyl)cyclopropane-carboxamide], for which the pKd in experiment [1] is 8.15. Further, the pIC50 was 7.54 with Phospho-Akt (S473) and 8.51 in experiment [2]. Also, in the experiment on cells, the GI50 is 444000 nM.
